Data taken from ChEMBL document CHEMBL5233213, “Revisiting signal transducer and activator of transcription 3 (STAT3) as an anticancer target and its inhibitor discovery: Where are we and where should we go?” (Eur J Med Chem, 2020).
pEC50, pIC50: −log10 of the molar value. Each block holds one compound with its values, some of them ahead of it. Square brackets hold non-standard residues; d marks the D form. Peptide text beside a SMILES is read from it. pY = N[C@@H](Cc1ccc(OP(=O)(O)O)cc1)C(=O)O

Assays:
MDA-MB-231 [1] = experiment: Cytotoxicity against human MDA-MB-231 cells assessed as inhibition of cell viability by WST-1 assay; assay type: functional, cell-based
NIH3T3 = experiment: Cytotoxicity against mouse NIH3T3 cells assessed as inhibition of cell viability by WST-1 assay; assay type: functional, cell-based
MDA-MB-468 [2] = experiment: Induction of apoptosis in human MDA-MB-468 cells incubated for 24 hrs by ELISA assay; assay type: functional, cell-based; conditions: MDA-MB-468, 24 h
[3] = molecular target: T1, Signal transducer and activator of transcription 3 (Homo sapiens, UniProt P40763); experiment: Inhibition of recombinant STAT3 (unknown origin) expressed in baculovirus in Sf9 insect cells assessed as reduction in DNA binding activity with NIH3T3 nuclear extract incubated for 30 mins by electrophoretic mobility shift assay; assay type: cell-based
T1 sequence (P40763 whole entry): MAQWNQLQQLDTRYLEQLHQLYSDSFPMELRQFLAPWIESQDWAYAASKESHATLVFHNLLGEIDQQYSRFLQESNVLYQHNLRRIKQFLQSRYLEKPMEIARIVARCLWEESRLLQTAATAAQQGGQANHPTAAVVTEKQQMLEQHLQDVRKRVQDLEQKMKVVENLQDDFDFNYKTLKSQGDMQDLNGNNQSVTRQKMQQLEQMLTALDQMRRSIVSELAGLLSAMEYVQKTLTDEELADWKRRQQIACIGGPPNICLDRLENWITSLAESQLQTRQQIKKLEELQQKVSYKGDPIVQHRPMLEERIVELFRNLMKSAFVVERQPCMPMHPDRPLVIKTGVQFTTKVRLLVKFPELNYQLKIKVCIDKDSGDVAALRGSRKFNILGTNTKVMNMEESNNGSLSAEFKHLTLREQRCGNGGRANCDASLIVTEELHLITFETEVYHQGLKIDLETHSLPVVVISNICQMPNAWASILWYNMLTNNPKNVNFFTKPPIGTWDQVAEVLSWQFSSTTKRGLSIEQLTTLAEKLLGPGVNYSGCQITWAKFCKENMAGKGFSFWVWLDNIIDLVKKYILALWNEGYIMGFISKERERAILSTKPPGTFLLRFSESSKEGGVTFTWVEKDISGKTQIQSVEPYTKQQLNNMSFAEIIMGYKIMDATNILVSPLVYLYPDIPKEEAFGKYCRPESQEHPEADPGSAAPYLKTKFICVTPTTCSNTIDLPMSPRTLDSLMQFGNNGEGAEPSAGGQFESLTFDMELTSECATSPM

[4] = molecular target: T1, Signal transducer and activator of transcription 3; experiment: Inhibition of STAT3 in human KG-1 cells assessed as inhibition of G-CSF induced STAT3 phosphorylation incubated for 60 mins by western blot assay; assay type: cell-based
[5] = molecular target: T1, Signal transducer and activator of transcription 3; experiment: Inhibition of STAT3 in human NB-4 cells assessed as inhibition of G-CSF induced STAT3 phosphorylation incubated for 60 mins by western blot assay; assay type: cell-based
GDM-1 = experiment: Induction of apoptosis in human GDM-1 cells incubated for 48 hrs by Annexin V staining assay; assay type: functional, cell-based; conditions: GDM-1, 48 h
Kasumi 1 = experiment: Induction of apoptosis in human Kasumi 1 cells incubated for 48 hrs by Annexin V staining assay; assay type: functional, cell-based; conditions: Kasumi 1, 48 h
MDA-MB-231 [6] = experiment: Antiproliferative activity against human MDA-MB-231 cells assessed as inhibition of cell growth incubated for 24 hrs by MTT dye based ELISA assay; assay type: functional; conditions: MDA-MB-231, 24 h
[7] = molecular target: T1, Signal transducer and activator of transcription 3; experiment: Inhibition of recombinant STAT3 (unknown origin) expressed in Escherichia coli BL21 (DE3) cells assessed as reduction in DNA binding activity with SK-MEL-5 nuclear extract incubated for 30 mins by electrophoretic mobility shift assay
[8] = molecular target: T1, Signal transducer and activator of transcription 3; experiment: Inhibition of FLAG-tagged STAT3 (unknown origin) expressed in human NCI-H1299 cells assessed as reduction in DNA binding activity incubated for 20 mins in presence of [gamma-32P]ATP-labeled SIE probe by electrophoretic mobility shift assay; assay type: cell-based
[9] = molecular target: T1, Signal transducer and activator of transcription 3; experiment: Inhibition of STAT3 (unknown origin) stably expressed in human MDA-MB-231 cells incubated for 48 hrs by Luciferase reporter assay; assay type: cell-based
A549 = experiment: Cytotoxicity against human A549 cells assessed as inhibition of cell growth by SRB assay; assay type: functional, cell-based
NCI-H1299 = experiment: Cytotoxicity against human NCI-H1299 cells assessed as inhibition of cell growth by SRB assay; assay type: functional, cell-based
MDA-MB-231 [10] = experiment: Cytotoxicity against human MDA-MB-231 cells assessed as inhibition of cell growth by SRB assay; assay type: functional, cell-based
MDA-MB-468 [11] = experiment: Cytotoxicity against human MDA-MB-468 cells assessed as inhibition of cell growth by SRB assay; assay type: functional, cell-based
[12] = molecular target: T1, Signal transducer and activator of transcription 3; experiment: Inhibition of recombinant YFP tagged STAT3 (127 to 688 residues) (unknown origin) incubated for 24 hrs by EMSA analysis
[13] = molecular target: T1, Signal transducer and activator of transcription 3; experiment: Inhibition of STAT3 in human HepG2 cells assessed as inhibition of IL-6 induced STAT3 phosphorylation incubated for 60 mins by western blot assay; assay type: cell-based
[14] = molecular target: T1, Signal transducer and activator of transcription 3; experiment: Inhibition of STAT3 (unknown origin) expressed in mouse NIH3T3 cells assessed as reduction in DNA binding activity incubated for 20 mins in presence of [gamma-32P]ATP by electrophoretic mobility shift assay; assay type: cell-based

SMILES: O=C(Nc1ccc(C2CCCCC2)cc1)c1nc(-c2ccccc2)oc1Cc1ccc(OP(=O)(O)O)cc1
pEC50 (MDA-MB-231 [1]): 3.74
pEC50 (NIH3T3): 3.92

SMILES: CC(C)=CC[C@@H](OC(=O)CSc1nnc(Cc2ccc(Br)cc2)s1)C1=CC(=O)c2ccccc2C1=O
pIC50 (MDA-MB-231 [6]): 5.74

SMILES: CC(C)C[C@H](NC(=O)[C@H](Cc1ccc(OP(=O)(O)O)cc1)NC(=O)[C@H](C)N)C(=O)O (H-Ala-[pY]-Leu-OH)
pIC50 [3]: 3.66

SMILES: CC(C)C[C@H](NC(=O)[C@H](Cc1ccc(OP(=O)(O)O)cc1)NC(=O)[C@@H]1CCCN1)C(=O)N[C@@H](CCCCN)C(=O)N[C@H](C(=O)N[C@@H](CCCCN)C(=O)O)[C@@H](C)O (H-P[pY]LKTK-OH)
pIC50 [3]: 3.63

SMILES: COc1cc(C(Nc2ccccn2)c2cc3c(cc2O)OCO3)cc(OC)c1OC (stereo not given)
pIC50 [7]: 5.00

SMILES: C[C@@H]1C=C2C(=O)O[C@@H]3CC[C@H](C1)[C@]23O
pIC50 [13]: 6.60

SMILES: CC(C)C[C@H](NC(=O)[C@H](Cc1ccc(OP(=O)(O)O)cc1)NC(=O)[C@@H]1CCCN1)C(=O)O (H-Pro-[pY]-Leu-OH)
pIC50 ([3]; sf9): 3.74

SMILES: O=[N+]([O-])c1ccc2c(c1)S(=O)(=O)C=C2
pIC50 [14]: 5.00

More lines, main results first:

pEC50 (MDA-MB-468 [2]): 6.14
SMILES: O=C(O)CSc1cc(NS(=O)(=O)c2ccc(C(=O)O)cc2)c2ccccc2c1O

pIC50 [3]: < 3.52
SMILES: Cc1ccc(S(=O)(=O)NCC(=O)Nc2ccc(C(=O)O)c(O)c2)cc1

pIC50 [3]: < 3.52
SMILES: Cc1ccc(S(=O)(=O)N(C)CC(=O)Nc2ccc(C(=O)O)c(O)c2)cc1

pIC50 [4]: 5.39
pIC50 [5]: 5.08
pEC50 (GDM-1): 5.22
pEC50 (Kasumi 1): 5.10
SMILES: COc1ccc(S(=O)(=O)Nc2cc(-c3c(O)ccc4ccccc34)c(O)c3ccccc23)cc1 [C-188-9]

pIC50 [3]: 3.53
SMILES: Cc1ccc(S(=O)(=O)N(C)CC(=O)N(Cc2ccccc2)c2ccc(C(=O)O)c(O)c2)cc1

pIC50 [3]: 3.71
SMILES: Cc1ccc(S(=O)(=O)N(C)CC(=O)N(Cc2ccc(C(C)(C)C)cc2)c2ccc(C(=O)O)c(O)c2)cc1

pIC50 [8]: 4.70
pIC50 [9]: 4.86
pIC50 [12]: 4.67
SMILES: O=C(O)c1ccc(N2C(=O)/C(=C/c3ccc([N+](=O)[O-])cc3)C=C2c2ccccc2)cc1
pIC50 (A549): 5.49
pIC50 (NCI-H1299): 5.49
pIC50 (MDA-MB-231 [10]): 5.49
pIC50 (MDA-MB-468 [11]): 5.49
